Where a name gives a salt, the structure may show the parent alone.
Tested on: chick chorioallantonic membrane
Test: Inhibitory effect on angiogenesis in the chick chorioallantonic membrane
Type: in vivo, chick (white leghorn)
Details: pellet on embryo chorioallantonic membrane, cultured two days, rate = positive eggs/tested eggs x100
Procedure: It was reported that effects of drugs on angiogenesis were evaluated using fertilized egg embryo chorioallantonic membrane as an in vivo angiogenesis evaluation model (Biochem. Biophys. Res. Commun., 174, 1070-1076 (1991)). Accordingly, effects of a cysteine derivative on the angiogenesis evaluation model were studied according to the assay described in the above-mentioned literature.
1. Methyl cellulose (0.1 g) is dissolved in sterile purified water (10 ml) to prepare a 1% solution of methyl cellulose.
2. A test compound is dissolved in ethanol/sterile purified water (1/1) to prepare a 24 μmol/ml solution.
3. The 24 μmol/ml solution of the test compound is diluted with ethanol/sterile purified water (1/1) to prepare 12 μmol/ml and 6 μmol/ml solutions of the test compound.
4. The solution (0.20 ml) of the test compound having each concentration is mixed with the 1% solution (0.20 ml) of methyl cellulose to prepare a mixed solution of the test compound.
5. […]
Hatched eggs (white leghorn) of three days old after fertilization were put up by threes on a culture plate having six wells with their air phases upward and incubated in a CO2 incubator for 20 minutes (temperature: 37° C., humidity: 95%, CO2 concentration: 5%). […] Hatched eggs in which angiogenesis was not observed were defined as positive, and inhibition rates of angiogenesis were calculated by the following equation.

SMILES: CC(C)(CS)C(=O)NC(CS)C(=O)NCCCCCCN (stereo in doubt) [N^1-(6-aminohexyl)-N^2-(2,2-dimethyl-3-mercaptopropionyl)-L-cysteinamide hydrochloride]
- Inhibition rate of angiogenesis (%) (dose 0.06 μmol/egg): 80%
- Inhibition rate of angiogenesis (%) (dose 0.12 μmol/egg): 93%

— patent publication US6444705B1, “Angiogenesis inhibitors” (Santen Pharmaceutical Co., Ltd., priority 1998, dated 2002)
